Assay results reported in a melting point compilation (Tetko et al.; mined from patent text by program, amines drawn as free bases though some values may be those of a salt).

melting point [°C]	SMILES
225	O=C1CC(c2cccc(-n3ccnc3)c2)=Nc2cc(OCCO)c(-c3ccc(F)cc3)cc2N1
141 to 144	O=S(=O)(Cc1n[nH]c(-c2ccccc2)n1)c1ccccc1
166	Nc1ccc2ccc(Oc3ccccc3Cl)nc2n1
320 to 321	COCCNS(=O)(=O)c1cc2[nH]c(=O)c(=O)[nH]c2cc1[N+](=O)[O-]
160 to 161	COc1ccc(Nc2ccc(C)cc2)c(C(=O)O)c1
325 to 326	Cc1nc2c3c(c(C(=O)O)cc2n1C)CCC(c1ccccc1)N3 (stereo unspecified)
161 to 162	CCN(CC)CC(=O)N1c2ccccc2N(C)S(=O)(=O)c2ccccc21
245	Nc1ccc(Nc2c(CC3CC4C=CC3C4)cc(C(=O)O)cc2S(N)(=O)=O)cc1 (stereo unspecified)
186	O=S(=O)(CC1CCN(CCC2CCOc3ccccc32)CC1)Nc1ccccc1 (stereo unspecified)
170 to 172	O=C1CCCN1CC1(O)CCN(c2ccnc(C(F)(F)F)n2)CC1
196 to 197	CCCCc1nc2c(N)nc(C)c(C)c2n1CCCCNC(=O)Nc1ccccc1
98 to 100	Cc1cc(Oc2ncc(C(F)(F)F)cc2Cl)nn1C(=O)NCCCl
173 to 174	Cc1cc(-c2cccc([N+](=O)[O-])c2)nnc1N(C)N
> 300	Brc1cccc2nc3[nH]c4ccccc4nc-3c12
102 to 104	CCOC(=O)c1ccc(S(N)(=O)=O)cc1
199 to 201	NS(=O)(=O)c1cc2ccncc2o1
143 to 144	COC(=O)c1ccc(-c2ccc3cc(C(=O)OCc4ccccc4)c(C45CC6CC(CC(C6)C4)C5)cc3c2)cc1
99 to 102	CN(C)S(=O)(=O)c1ccc2c(c1)CNc1ccccc1O2
105 to 108	CCCCCNC(=O)[C@@H]1CCCN1C(=O)[C@H](C)NC(=O)CC
153 to 168	COc1cc(F)c(CN(C=O)CCc2ccc(O)cc2)cc1O
214 to 216	CN(c1ccc2sccc2c1)c1nc(=O)c2cccnc2s1
220	CC(C)(C)C1C=C(Cn2nc(-c3ccccc3-c3nn(CC4=CC(C(C)(C)C)C(O)(C(C)(C)C)C=C4)c(=O)o3)oc2=O)C=CC1(O)C(C)(C)C (stereo unspecified)
162 to 163	Cc1ccc(C(=O)n2c(C)c(CC(=O)O)c3cc4c(cc32)OCCO4)cc1
196 to 200	COc1ccc(CN2Cc3cc(N(C)C)ccc3N3CC(=O)N=C23)cc1
124 to 125	NC(=O)Cc1ccc2[nH]cc(CCNC(=O)OCc3ccccc3)c2c1

melting point [°C]	SMILES
110 to 112	CCCCCCCCCCCCCCCCCCNC(=O)OCC(CNS(=O)(=O)CCCCl)NC(C)=O (stereo unspecified)
160 to 161	CCOC(=O)c1cn(CC)c2cc(-c3csc(CN(CC)C(C)=O)n3)c(F)cc2c1=O
180 to 181	COC=C(C(=O)OC)c1csc2ccc(C=Cc3ccccc3)cc12
87 to 90	CSc1cn(CC(C)N(O)C(N)=O)c2ccccc12 (stereo unspecified)
74 to 75	COc1ccccc1C(C)(O)c1ocnc1C (stereo unspecified)
227 to 228	CCn1c(=O)ccc2cnc(Nc3ccc(N4CCOCC4)cc3)nc21
66 to 68	C=CC(=O)OCCOC(=O)Nc1ccccc1
101 to 104	COCCOc1cc(C(F)(F)F)cc(Oc2ccc(CCNc3ncnc4nccnc34)cc2)n1
259 to 262	O=C(O)c1ccc2c(c1)CCN2Cc1cccc([N+](=O)[O-])c1
171 to 172	COc1cc(C(=O)Nc2cc(C(=O)c3ccccc3)ccc2N2CCOCC2)cc(OC)c1OC
145 to 147	NS(=O)(=O)CCCOc1ccc2ncnn2n1
177 to 179	C#CCOc1ccc(C(=O)C=Cc2c(OC)cc(OC)cc2OC)c(O)c1
158 to 160	Cc1ccc(C(=O)C=Cc2ccc[nH]2)cc1
238 to 240	CC(C)(C)c1ccc(C(=O)Nc2cn3cc(-c4cn[nH]c4)ccc3n2)cn1
164 to 166	O=C1[C@H]2CCCC[C@H]2Nc2ccccc2N1Cc1ccccc1 (relative stereo)
149 to 150	Oc1c(C2CCCC2)cc(CSCc2cc(C3CCCC3)c(O)c(C3CCCC3)c2)cc1C1CCCC1
148	CN1CCC(c2ccc(Oc3ccccc3)cc2)(C(C)(C)O)CC1
110 to 112	O=C(Nc1ccc(F)cc1F)c1cccc(Oc2cccc(C(F)(F)F)c2)n1
151 to 155	COC(=O)c1ccc(S(C)(=O)=O)c(CC#N)c1Cl
275 to 280	Cc1nn(-c2ccccc2)nc1C(=O)N1CCC2(CC1)CSC1=C(O2)c2ccccc2C(=O)C1=O
115 to 118	Cc1ccc(C(C)C)c(OCCN(C)Cc2c(C)c(O)c(C)c(C)c2OCCO)c1
189 to 191	O=C(NCCCN1CCN(c2ccc(F)cc2OCC(F)(F)F)CC1)c1csc2c(=O)cc(-c3ccccc3)oc12
144 to 146	CCCCCOc1cc(C(=O)O)cc([N+](=O)[O-])c1-c1ccccc1
123 to 125	COc1cc(-n2c(OC)nc(C(F)(F)C(F)(F)F)cc2=O)c(F)cc1Cl
200 to 203	Nn1c(-c2ccccc2)nc2cc(C(F)(F)F)ccc21

melting point [°C]	SMILES
219 to 220	CCOC(=O)CCC1(NC(=O)c2ccc(Cl)c(Cl)c2)C(=O)N(CC(=O)O)c2ccccc21 (stereo unspecified)
167 to 168	CC(C)c1ccc2c(CCCCNS(=O)(=O)c3ccccc3)cc(C(=O)O)c-2cc1
107	CCOC(=O)c1cc2sc(C3CCC(c4c(F)cccc4F)=N3)cc2s1 (stereo unspecified)
206 to 208	CC(C)c1ccc(-c2csc(-c3cccc(C(=O)O)c3)n2)cc1
226	COC(=O)c1sccc1Nc1ccnc2c(Cl)cccc12
267 to 273	COCCOc1cc2nncc(Oc3cc(O)c(C)cc3F)c2cc1OC
202 to 204	CCc1[nH]c(=S)n(Nc2cccc(C)c2)c1-c1ccccc1
135 to 137	CCCOc1cc2c(c3c(=O)c(-c4ccc(OC)cc4)cn(CCCN4CCOCC4)c13)CCC2
56 to 57	CCCCCCCCC(C)C(=O)NCl (stereo unspecified)
240 to 241	CNC(=O)c1cnn(-c2ccc(Br)cc2)c1C#N
> 250	COc1ccc(CCNc2nc(O)c(C(=O)c3ccco3)c(O)n2)cc1OC
250 to 252	CCCc1nc2c(N)nc3ccccc3c2n1CC1(O)CCCCC1
132 to 134	CC(O)(C(=O)Nc1ccc(C(=O)c2ccccc2)c(F)c1)C(F)(F)F (stereo unspecified)
148 to 150	CCCCOc1c(CNC(=O)OC(C)(C)C)n(CC(C)C)c(=O)c2ccc(-c3nc(C)c(C#N)s3)cc12
144 to 147	CCCCCS(=O)(=O)NC(=O)/C=C/c1cc(OCC2(C)COC2)nn1Cc1ccc(C(F)(F)F)cc1Cl
172 to 173	O=C(Nc1nc(C(F)(F)F)c(I)s1)c1cc(C(F)(F)F)cc(C(F)(F)F)c1
110 to 112	OCc1cc(Br)cc(I)c1
242 to 245	CCNC(=O)c1ccc(N2CCN(Cc3cc(C)c4c(c3)NC(=O)C(C)O4)CC2)c(F)c1 (stereo unspecified)
168 to 170	NCc1ccc(N2CCN(c3ccncc3)CC2)cc1
80.1 to 81.5	CCOC(=O)c1ccc(-c2ccc(OCCCCCCCCCCCCOC(C)=O)cc2)cc1
156 to 157	CC(C)(C)OC(=O)N1CCC(O)(CSC2=CC(=O)C(=O)c3ccccc32)CC1
183	O=C1CS[C@@H]2[C@H](NC(=O)Cc3ccccc3)C(=O)N2C1
71 to 73	c1ccc(COCCOc2ccc(OCc3ccccc3)cc2)cc1
267 to 269	CN(Cc1ccccc1)C(=O)c1cnc2c3c(c(F)cc2c1)C(=O)C(C#N)C=N3 (stereo unspecified)
167	CC(C)(C)C(=O)NNc1cc(F)c(C#N)cc1F

melting point [°C]	SMILES
127	COC(=O)c1[nH]c2c(C)ccc(C)c2c1S(C)=O (stereo unspecified)
125 to 127	CC1(C)C=C(C(=O)NC2COC(C)(C)OCC2O)C(C)(C)N1 (stereo unspecified)
> 250	CC(C)n1nc(-c2nc(C(N)=O)c(N)nc2Cl)ccc1=O
128 to 130	O=C(NCCCOc1cccc(CN2CCCCC2)c1)Nc1ccc2c(c1)OCO2
180 to 182	CCOC(=O)NNC(=O)Nc1c(F)c(F)c(F)c(F)c1F
139 to 141	COc1cc(CC(N)=O)c(CCc2ccc(O)c(OCc3ccccc3)c2)c(OC)c1OC
133 to 134	CC(C)C[C@H](NC(=O)[C@H](CC(C)C)N[C@H](CC(C)C)C(=O)OCc1ccccc1)C(=O)N[C@@H](C)C(N)=O
139 to 140	CC1=C(c2ccncc2)SCC(=O)N1C
68	O=C(NC/C=C/c1ccccc1)c1ccccc1F
140 to 141	CC1(C)CC(C)(C)CC(CCCC(=O)O)(NC(=O)CCl)C1
250 to 252	COC(=O)c1ccc2oc3c(c(=O)c2c1)CCC3=Cc1ccccn1
112 to 114	CC1=C(O)CCC(C)(C)C1=O
130	O=C(O)C1Cc2ccccc2C1
65	CCCC(=O)C(Cc1ccc(-c2ccccc2-c2nnn[nH]2)cc1)C(=O)OCC (stereo unspecified)
180 to 185	O=C1Nc2ccc(Br)cc2C2(CCCC2)O1
168 to 169	CCOC(=O)c1cc2cc(C)cc(NS(=O)(=O)c3cccs3)c2[nH]1
101 to 102	CCCSc1ccc(-c2coc3ccc(-c4nnc(C)o4)cc23)cc1
148 to 151	CNCCc1[nH]c2ccccc2c1-c1ccccc1
91 to 97	N#CCc1ccc(OCc2ccccc2)c([N+](=O)[O-])c1
76 to 77	Cc1oc(-c2ccccc2)nc1COc1ccc(C(C)CCCC#N)cc1 (stereo unspecified)
> 250	CS(=O)(=O)Nc1cc2occ(C(N)=O)c(=O)c2cc1Oc1ccccc1
133 to 135	COc1ccc2[nH]c3c(c2c1)C(=O)/C(=C/c1nc[nH]c1C)CC3

SMILES	melting point [°C]
CCCN(CCC)C1COc2cccc(C(=O)C(C)C)c2C1 (stereo unspecified)	60 to 62
[N-]=[N+]=NCC(=O)Nc1ccccc1	83
Cc1cc(NC(=O)c2cc3cc(F)ccc3n2Cc2ccncc2)cnc1N(C)C	282 to 283
N#Cc1ccc(N2CCC[C@H]2C(N)=O)c2ccccc12	177 to 178
